This is an account of results in patent publication US6142972A, “Method and apparatus for the delivery of elongate solid drug compositions” (Delab, priority 1998, dated 2000).

The conditions of series [1]: pure insulin, depending on purity; cited from earlier work.
Series [2] can be described thus: Pharmacokinetics of SOMATULINE™ filament vs liquid solution in dogs (FIGS. 4A and 4B). To be noted: dog, blood. The class given is in vivo. How it is done:
FIGS. 4A and 4B are graphs showing the blood level in a dog of a somatostatin analog, SOMATULINE™ (BIM-23014C, Biomeasure, Milford Mass.) after implantation of a solid filament compared to a liquid solution of BIM-23014C.
The above protocol was performed by mixing 1.500 g of HEC and 8.500 g of water. 0.42250 g of the resulting gel was added to 0.06395 g of BIM 23014. The mixture was extruded through a […] (0.3 mm internal diameter needle), collected, and dried under vacuum for 24 hours. The dried filament contained 0.107 mg of BIM 23014/cm (weight percentage 50% HEC and 50% BIM 23014).
The filaments were tested for pharmacokinetics and compared to liquid infusions of the same dosage of SOMATULINE™ in dogs. The results are shown in the graphs in FIGS. 4A, 4B, and 5. […] However, the blood concentration decreased to less than 0.1 ng/ml within about 2 hours, to less than 0.001 within about 8 hours, and to about 0.0005 ng/ml in less than 12 hours. On the other hand, the blood concentration of SOMATULINE™ provided by the solid drug filament was at an almost constant level over 0.1 ng/ml for the first 10 hours, declined to about 0.002 ng/ml within 24 hours, and declined further to 0.0005 ng/ml by 72 hours.

“recombinant human insulin: pure insulin, e.g., recombinant human insulin”: the “Insulin Units (IU) per mg” value in series [1] is 26 to 28 Insulin Units (IU) per mg.
As for `CC(C)[C@@H]1NC(=O)[C@H](CCCCN)NC(=O)[C@@H](Cc2c[nH]c3ccccc23)NC(=O)[C@H](Cc2ccc(O)cc2)NC(=O)[C@@H](NC(=O)[C@H](N)Cc2ccc3ccccc3c2)CSSC[C@@H](C(=O)N[C@H](C(N)=O)[C@@H](C)O)NC1=O` [SOMATULINE™], the concentration at 10 h in series [2] (solid drug filament, first 10 hours, read-out: blood concentration of SOMATULINE™ (almost constant level)) is > 0.1 ng/mL. For the same compound, the concentration at 24 h in series [2] (solid drug filament, within 24 hours) is ~0.002 ng/mL. Moreover, the C0 in series [2] (solution formulation, initial, read-out: blood concentration of SOMATULINE™, initial) is ~0.5 ng/mL. Also, the concentration at 2 h in series [2] (solution formulation, within about 2 hours) was < 0.1 ng/mL. The concentration at 8 h in series [2] (solution formulation, within about 8 hours) is < 0.001 ng/mL.
